Source: ChEMBL document CHEMBL4052639, “2-Isocyano glucose used in Ugi four-component reaction: An approach to enhance inhibitory effect against DNA oxidation” (Eur J Med Chem, 2017)
The source made the active and inactive calls. No cut-off for these calls is given here.

Key:
Assay type in all cases: functional
[1] = Antioxidant activity assessed as reduction in AAPH-induced DNA oxidation up to 400 uM measured every 2 hrs by TBARS assay
[2] = Antioxidant activity assessed as reduction in hydroxyl radical-induced DNA oxidation by measuring TBARS level at 400 uM after 90 mins relative to control; design: scale not given: the % may be the effect or the level left
[3] = Antioxidant activity assessed as reduction in Cu2+/GSH-induced DNA oxidation by measuring TBARS level at 400 uM after 90 mins relative to control; design: scale not given: the % may be the effect or the level left

SMILES | Activity [1] | Activity [2] [%] | Activity [3] [%]
O=C(O)c1cc(O)c(O)c(O)c1 | Active | – | –
O=C(O)/C=C/c1ccc(O)c(O)c1 | Active | – | –
COc1cc(/C=C/C(=O)N(CC(=O)N[C@@H]2[C@@H](O)[C@H](O)[C@@H](CO)O[C@H]2O)Cc2ccccc2)ccc1O | Active | 94.7 | 92.8
O=C(CN(Cc1ccccc1)C(=O)/C=C/c1ccc(O)c(O)c1)N[C@@H]1[C@@H](O)[C@H](O)[C@@H](CO)O[C@H]1O | Active | 93.7 | 94.6
O=C(CN(C(=O)c1cc(O)c(O)c(O)c1)c1ccccc1)NC12CC3CC(CC(C3)C1)C2 | Active | 95.6 | 93.6
O=C(CN(C(=O)c1ccccc1)c1ccccc1)N[C@@H]1[C@@H](O)[C@H](O)[C@@H](CO)O[C@H]1O | inactive | 100 | 99.3
O=C(CN(C(=O)c1cc(O)c(O)c(O)c1)c1ccccc1)NC1CCCCC1 | Active | 97.1 | 97.1
COc1cc(/C=C/C(=O)O)ccc1O | Active | – | –
O=C(CN(C(=O)c1ccccc1)c1ccc(O)cc1)N[C@@H]1[C@@H](O)[C@H](O)[C@@H](CO)O[C@H]1O | Active | 98.3 | 96.7
O=C(CN(C(=O)c1cc(O)c(O)c(O)c1)c1ccc(O)cc1)N[C@@H]1[C@@H](O)[C@H](O)[C@@H](CO)O[C@H]1O | Active | 91.8 | 91
O=C(CN(C(=O)c1cc(O)c(O)c(O)c1)c1ccccc1)NCCc1c[nH]c2ccccc12 | Active | 93.8 | 96.2
O=C(CN(C(=O)c1ccc(O)cc1)c1ccc(O)cc1)N[C@@H]1[C@@H](O)[C@H](O)[C@@H](CO)O[C@H]1O | Active | 94.9 | 95
O=C(O)c1ccc(O)cc1 | Active | – | –
O=C(CN(C(=O)c1ccc(O)cc1)c1ccccc1)N[C@@H]1[C@@H](O)[C@H](O)[C@@H](CO)O[C@H]1O | Active | 96.5 | 97.8
O=C(CN(C(=O)c1cc(O)c(O)c(O)c1)c1ccccc1)N[C@@H]1[C@@H](O)[C@H](O)[C@@H](CO)O[C@H]1O | Active | 92.7 | 90.1
